According to patent US20220017572A1, “GEMINOID LIPOPEPTIDE COMPOUNDS AND THEIR USES” (Erasmus University Medical Center Rotterdam, priority 2016, published 2022):
Non-standard residues stand in square brackets, D forms with d. Residues, ends and D or L forms follow the SMILES beside them. C12 = C12 alkyl chain at peptide end (geminoid); C16 = C16 alkyl chain at peptide end (geminoid); C20 = C20 alkyl chain at peptide end (geminoid); C3 = C3 alkyl chain at peptide end

Tests used:
[1] = tested on: DENV2 protease replicon; experiment: DENV2 protease replicon assay; format: cell-based; settings: lowest concentration with observed activity in replicon assay
[2] = molecular target: T1, dengue 2 protease (Dengue virus type 2, UniProt P14340); experiment: Dengue 2 protease inhibition, hydrolysis of Z-RR-MCA; format: biochemical, dengue 2 virus; parameters: Activity with inhibitors: unit not given here; settings: for Activity with inhibitors: 10 μM Z-RR-MCA, pH 9.0, 37° C., initial activity in UAF/min
T1 construct: The active site of the dengue protease is in the N-terminal part of NS3
Protocol: The active site of the dengue protease is in the N-terminal part of NS3 which is also a serine protease with catalytic triad Asp79-His51-Ser135, but requires […] (CF40) for activity; the inhibition reported here was studied on a […] (CF40-GGGGSGGGG-NS3; (SEQ ID NO:54)) which has also been structurally characterized [Erbel et al., 2006; Luo et al. 2008].
Substrate was added in a concentration 10 times the Km, and the inhibitor compounds of type C (C16-KGnK-C16, C16-KAnK-C16, and C16-RAnR-C16) were added in increasing concentrations (1.0, 5.0, 10.0, 20.0, 40.0 μL) from a stock solution of 2 mg in 1 mL DMSO. The residual activity was measured in a Hitachi F2500 spectrofluorimeter, and plots were fitted using the Grafit® software (Erithracus Software, Horley, Surrey, UK). All the assays were calculated by the Morrison equation for competitive inhibition (eq. 1, [Morrison, 1969]). The amount of substrate used for the tight binding titration experiments follow all the requirements, where [S]<<Km for all enzymes, so the Kiapp=Ki.
Range of Proteases Inhibited by Geminoids, Determination of Ki with Z-RR-MCA (Dengue 2 Protease) and Ac-RVRR-MCA (Furin) (SEQ ID NO:60).

[3] = molecular target: T1, dengue 2 protease; experiment: Dengue 2 protease inhibition in presence of Triton X-100 (detergent test, Nature Protocol); format: biochemical, dengue 2 virus; settings: 0.05% Triton X-100; for Activity with 0.05% Triton: initial activity in UAF/min
From the text: A further investigation of the interactions of the geminoid inhibitors with biological membranes and with membrane-bound proteases is needed. […] The preparation and tests of peptides symmetrically, asymmetrically and singly alkylated with saturated, short (C6), and unsaturated (C18:1) alkyl tails are in progress.

T1 sequence (P14340 1476-1653): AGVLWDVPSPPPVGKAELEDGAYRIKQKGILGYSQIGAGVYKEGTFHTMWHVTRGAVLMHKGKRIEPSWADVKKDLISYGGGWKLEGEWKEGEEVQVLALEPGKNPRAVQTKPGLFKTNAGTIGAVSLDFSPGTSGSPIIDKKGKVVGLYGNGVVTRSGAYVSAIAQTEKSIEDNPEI

## C16-LLKK-C16: geminoid in shorthand Cp-Zn-Cq, peptide SEQ ID NO: 66
[1]
  Replicon activity [μM] (1): 3.0 µM

## C2-AKAK-C3: alkylated peptide in shorthand Cp-Zn-Cq, peptide SEQ ID NO: 74 (Et-AKAK-C3)
[1]
  Replicon activity [μM] (1): 10.0 µM

## C8-AKAK-C8: alkylated peptide in shorthand Cp-Zn-Cq, peptide SEQ ID NO: 74 ({C8 alkyl}-AKAK-{C8 alkyl})
[1]
  Replicon activity [μM] (1): 10.0 µM

## C8-AKKK-C8: alkylated peptide in shorthand Cp-Zn-Cq, peptide SEQ ID NO: 71 ({C8 alkyl}-AKKK-{C8 alkyl})
[1]
  Replicon activity [μM] (1): 10.0 µM

## C16-FFKK-C16: geminoid in shorthand Cp-Zn-Cq, peptide SEQ ID NO: 70
[1]
  Replicon activity [μM] (1): 5.0 µM

## C16-FAKK-C16: geminoid in shorthand Cp-Zn-Cq, peptide SEQ ID NO: 64
[1]
  Replicon activity [μM] (1): 3.0 µM

## C16-D-AKAKG-C16: geminoid in shorthand Cp-Zn-Cq, D-peptide, SEQ ID NO: 87 (C16-[dA][dK][dA][dK]G-C16)
[1]
  Replicon activity [μM] (1): 3.0 µM

## C3-AKKK-C3: alkylated peptide in shorthand Cp-Zn-Cq, peptide SEQ ID NO: 71 ({C3 alkyl}-AKKK-{C3 alkyl})
[1]
  Replicon activity [μM] (1): 10.0 µM

## C16-LAKK-C16: geminoid in shorthand Cp-Zn-Cq, peptide SEQ ID NO: 63
[1]
  Replicon activity [μM] (1): 5.0 µM

## C12-FKKK-C12: geminoid in shorthand Cp-Zn-Cq, peptide SEQ ID NO: 73
[1]
  Replicon activity [μM] (1): 10.0 µM

## C16-QRKR-C16: geminoid in shorthand Cp-Zn-Cq, peptide SEQ ID NO: 85
[1]
  Replicon activity [μM] (1): 3.0 µM

## CCCCCCCCCCCCCCCCNC(=O)[C@H](CCCNC(=N)N)NC(=O)[C@H](C)NC(=O)[C@H](CCCNC(=N)N)NC(=O)CCCCCCCCCCCCCCC [C16RARC16, n-C15H31C(O)-Arg-Ala-Arg-(n-C16H33).2TFA]
[2]
  Ki: 3.1 µM
[2]; 5 μM of inhibitor
  Activity with inhibitors: 27
[3]; 5 μM of inhibitor
  % recovery in presence of Triton: 52%
  Activity with 0.05% Triton: 105

## C8-FKKK-C8: alkylated peptide in shorthand Cp-Zn-Cq, peptide SEQ ID NO: 73 ({C8 alkyl}-FKKK-{C8 alkyl})
[1]
  Replicon activity [μM] (1): 10.0 µM

## C16-LKKK-C16: geminoid in shorthand Cp-Zn-Cq, peptide SEQ ID NO: 72
[1]
  Replicon activity [μM] (1): 1.0 µM

## C3-ARRK-C3: alkylated peptide in shorthand Cp-Zn-Cq, peptide SEQ ID NO: 76 ({C3 alkyl}-ARRK-{C3 alkyl})
[1]
  Replicon activity [μM] (1): 3.0 µM

## C16-NKKR-C16: geminoid in shorthand Cp-Zn-Cq, peptide SEQ ID NO: 86
[1]
  Replicon activity [μM] (1): 3.0 µM

## C8-LKKK-C8: alkylated peptide in shorthand Cp-Zn-Cq, peptide SEQ ID NO: 72
[1]
  Replicon activity [μM] (1): 10.0 µM

## C16-FFQK-C16: geminoid in shorthand Cp-Zn-Cq, peptide SEQ ID NO: 82
[1]
  Replicon activity [μM] (1): 3.0 µM

## C16-AFKK-C16: geminoid in shorthand Cp-Zn-Cq, peptide SEQ ID NO: 68
[1]
  Replicon activity [μM] (1): 5.0 µM

## C16-RARK-C16: geminoid in shorthand Cp-Zn-Cq, peptide SEQ ID NO: 77
[1]
  Replicon activity [μM] (1): 3.0 µM

## C3-FKKK-C3: alkylated peptide in shorthand Cp-Zn-Cq, peptide SEQ ID NO: 73 ({C3 alkyl}-FKKK-{C3 alkyl})
[1]
  Replicon activity [μM] (1): 10.0 µM

## C12-AKAK-C12: geminoid in shorthand Cp-Zn-Cq, peptide SEQ ID NO: 74
[1]
  Replicon activity [μM] (1): 10.0 µM

## C16-D-LKAKG-C16: geminoid in shorthand Cp-Zn-Cq, D-peptide, SEQ ID NO: 88 (C16-[dL][dK][dA][dK]G-C16)
[1]
  Replicon activity [μM] (1): 3.0 µM

## CCCCCCCCCCCCCCCCNC(=O)[C@H](CCCNC(=N)N)NC(=O)[C@H](C)NC(=O)[C@H](C)NC(=O)[C@H](C)NC(=O)[C@H](CCCNC(=N)N)NC(=O)CCCCCCCCCCCCCCC [C16RA3RC16, n-C15H31C(O)-Arg-(Ala)3-Arg-(n-C16H33).2TFA] (HELM PEPTIDE1{[CCCCCCCCCCCCCCCC(=O)[*:2]].R.A.A.A.R.[CCCCCCCCCCCCCCCCN[*:1]]}$$$$V2.0)
[2]
  Ki: 1.3 µM
[2]; 15 μM of inhibitor
  Activity with inhibitors: 55
[3]; 15 μM of inhibitor
  % recovery in presence of Triton: 50%
  Activity with 0.05% Triton: 124

## C16-FLKK-C16: geminoid in shorthand Cp-Zn-Cq, peptide SEQ ID NO: 67
[1]
  Replicon activity [μM] (1): 3.0 µM

## C12-RARK-C12: geminoid in shorthand Cp-Zn-Cq, peptide SEQ ID NO: 77
[1]
  Replicon activity [μM] (1): 1.0 µM

## C16-AAKK-C16: geminoid in shorthand Cp-Zn-Cq, peptide SEQ ID NO: 62
[1]
  Replicon activity [μM] (1): 5.0 µM

## C16-GLKR-C16: geminoid in shorthand Cp-Zn-Cq, peptide SEQ ID NO: 84
[1]
  Replicon activity [μM] (1): 3.0 µM

## C16-LFKK-C16: geminoid in shorthand Cp-Zn-Cq, peptide SEQ ID NO: 69
[1]
  Replicon activity [μM] (1): 10.0 µM

## C16-D-AKAK-C16: geminoid in shorthand Cp-Zn-Cq, D-peptide, SEQ ID NO: 74 (C16-[dA][dK][dA][dK]-C16)
[1]
  Replicon activity [μM] (1): 2.9 µM

## C8-LKAK-C8: alkylated peptide in shorthand Cp-Zn-Cq, peptide SEQ ID NO: 75 ({C8 alkyl}-LKAK-{C8 alkyl})
[1]
  Replicon activity [μM] (1): 10.0 µM

## C16-AKKK-C16: geminoid in shorthand Cp-Zn-Cq, peptide SEQ ID NO: 71
[1]
  Replicon activity [μM] (1): 1.0 µM

## C16-LLQK-C16: geminoid in shorthand Cp-Zn-Cq, peptide SEQ ID NO: 81
[1]
  Replicon activity [μM] (1): 0.3 µM

## C20-AKKK-C20: geminoid in shorthand Cp-Zn-Cq, peptide SEQ ID NO: 71
[1]
  Replicon activity [μM] (1): 3.0 µM

## C20-LKKK-C20: geminoid in shorthand Cp-Zn-Cq, peptide SEQ ID NO: 72
[1]
  Replicon activity [μM] (1): 1.0 µM

## C12-LKAK-C12: geminoid in shorthand Cp-Zn-Cq, peptide SEQ ID NO: 75
[1]
  Replicon activity [μM] (1): 10.0 µM

## C8-ARRK-C8: alkylated peptide in shorthand Cp-Zn-Cq, peptide SEQ ID NO: 76 ({C8 alkyl}-ARRK-{C8 alkyl})
[1]
  Replicon activity [μM] (1): 10.0 µM

## C16-ALKK-C16: geminoid in shorthand Cp-Zn-Cq, peptide SEQ ID NO: 65
[1]
  Replicon activity [μM] (1): 10.0 µM

## C16-AKAKS-C16: geminoid in shorthand Cp-Zn-Cq, peptide SEQ ID NO: 89
[1]
  Replicon activity [μM] (1): 1.0 µM

## C16-LKRR-C16: geminoid in shorthand Cp-Zn-Cq, peptide SEQ ID NO: 83
[1]
  Replicon activity [μM] (1): 3.0 µM

## C16-ARRK-C16: geminoid in shorthand Cp-Zn-Cq, peptide SEQ ID NO: 76
[1]
  Replicon activity [μM] (1): 0.3 µM

## C20-FKKK-C20: geminoid in shorthand Cp-Zn-Cq, peptide SEQ ID NO: 73 ({C20 alkyl}-FKKK-{C20 alkyl})
[1]
  Replicon activity [μM] (1): 0.9 µM

## C16-D-LKAK-L-S-C16: geminoid in shorthand Cp-Zn-Cq, D-LKAK with L-S, SEQ ID NO: 90 (C16-[dL][dK][dA][dK]S-C16)
[1]
  Replicon activity [μM] (1): 3.0 µM

## C2-LKAK-C3: alkylated peptide in shorthand Cp-Zn-Cq, peptide SEQ ID NO: 75 (Et-LKAK-C3)
[1]
  Replicon activity [μM] (1): 10.0 µM

## C16-D-AKAKS-C16: geminoid in shorthand Cp-Zn-Cq, D-peptide, SEQ ID NO: 89 (C16-[dA][dK][dA][dK][dS]-C16)
[1]
  Replicon activity [μM] (1): 5.0 µM

## C12-ARRK-C12: geminoid in shorthand Cp-Zn-Cq, peptide SEQ ID NO: 76
[1]
  Replicon activity [μM] (1): 0.3 µM

## C16-LKAK-C16: geminoid in shorthand Cp-Zn-Cq, peptide SEQ ID NO: 75
[1]
  Replicon activity [μM] (1): 3.0 µM

## C16-D-LKAK-C16: geminoid in shorthand Cp-Zn-Cq, D-peptide, SEQ ID NO: 75 (C16-[dL][dK][dA][dK]-C16)
[1]
  Replicon activity [μM] (1): 9.9 µM

## C3-LKKK-C3: alkylated peptide in shorthand Cp-Zn-Cq, peptide SEQ ID NO: 72
[1]
  Replicon activity [μM] (1): 10.0 µM
